Laboratory results taken from publication PMC11306024, “Novel metabolite madeirone and neomarinone extracted from Streptomyces aculeoletus as marine antibiofilm and antifouling agents” (Frontiers in Chemistry, 2024).

Columns and labels:
[1] = Mussel larvae acute toxicity (mortality); conditions: Mytilus galloprovincialis, in vivo, other: waterborne exposure in 24-well plates; 15 h acute exposure
Method: The in vivo antimacrofouling activity of compounds (1) and (2) was evaluated against mussel M. galloprovincialis adhesive larvae (plantigrades) in an acute bioassay. Juvenile mussel aggregates were harvested from the intertidal rocky shore during low spring tides at Memória beach, Matosinhos, Portugal. In the laboratory, precisely before the bioassays, mussel plantigrade larvae were meticulously screened and isolated from the juvenile aggregates using a binocular microscope (Olympus SZX2-ILLT, Hamburg, Germany). The isolated larvae were then washed with filtered seawater to eliminate organic debris, and competent plantigrade larvae, characterized by foot exploratory behavior, were selected for the exposure bioassays, following established protocols ([Almeida et al., 2017]; [Almeida et al., 2020]; [Antunes et al., 2019]; [Mabrouk et al., 2020]). Plantigrades were exposed in 24-well polystyrene plates for 15 h in darkness at 18°C. DMSO served as the solvent for the testing compounds in stock and working solutions. The DMSO concentration in the tested solutions was consistently maintained at 0.1%. […] The anti-settlement bioactivity was assessed based on the presence or absence of fixed byssal threads produced by each individual larva for all tested conditions. […] EC50 values for each compound were calculated using Probit regression analysis. […]

M. luteus = experiment: Antibiofilm activity (inhibition of biofilm formation); type: cell-based, Micrococcus luteus DSM 20030
Method: (§1) To assess antimicrofouling activity, we selected five marine bacterial species as models: Marinobacter hydrocarbonoclasticus DSM 8798 (ATCC 49840), C. marina DSM 4741, Phaeobacter inhibens DSM 17,395, Pseusooceanicola batsensis DSM 15,984, and Micrococcus luteus DSM 20030 (ATCC 4698) ([Michael et al., 2016]). These strains, sourced from DSMZ (Leibniz Institute DSMZ—German Collection of Microorganisms and Cell Cultures), were cultured in liquid marine broth (Carl Roth GmbH, Karlsruhe, Germany) with agitation at 180 rpm or on agar-supplemented marine broth. Incubation temperatures were set at 28°C for M. hydrocarbonoclasticus and Cobetia marina, 30°C for P. inhibens and P. batsensis, while M. luteus was maintained at 37°C in Brain Heart Infusion broth (BHI, Becton Dickinson, GmbH, Heidelberg, Germany) under similar agitation conditions.
The antibiofilm potential of compounds (1) and (2) against the five marine bacterial species was investigated in 96-well polystyrene flat-bottom microplates (Nunclon Delta Surface, Thermo Scientific, Roskilde, Denmark), as described previously ([Bauermeister et al., 2019]; [Pereira et al., 2020]). In the initial screening, bacterial overnight cultures were diluted to an OD600 of 0.2 and incubated statically at appropriate temperatures. The cultures were tested at 31.25, 15.60, 7.81, 3.91, 1.95, 0.98 μg/mL concentrations (2-fold serial dilutions) of compounds (1) and (2), solubilized in DMSO, or left untreated. After 24 h (M. hydrocarbonoclasticus, C. marina) or 48 h (P. batsensis, P. inhibens, M. luteus) incubation, OD600 was measured. The planktonic cells and media were discarded, and the wells were washed twice with deionized water. Biofilms were fixed, stained, and quantified by measuring the OD600 after solubilization with acetic acid. Biofilm inhibition percentages were calculated relative to untreated bacterial species, using DMSO as a negative control and CuSO4 (0.16 μg/mL), as a positive control. All assays were performed in triplicate, and the results represent the mean and standard error of the mean (SEM). Statistical analysis was conducted using GraphPad Prism 8.0.2, employing one-way ANOVA followed by Dunnett’s multiple comparisons test against the negative control.

P. inhibens = experiment: Antibacterial activity (growth inhibition, OD600); type: cell-based, Phaeobacter inhibens DSM 17395; conditions: 48 h
Method: as §1
The antibacterial efficacy of compounds (1) and (2) was assessed in 96-well polystyrene flat-bottom microplates (Nunclon Delta Surface, Thermo Scientific, Roskilde, Denmark) following established procedures ([Bauermeister et al., 2019]). In the initial screening, bacterial overnight cultures were diluted to an optical density (OD600nm) of 0.2 and incubated statically at appropriate temperatures. The cultures were treated with the following final concentrations per well: 31.25, 15.60, 7.81, 3.91, 1.95, and 0.98 μg/mL (2-fold serial dilutions) of the compounds, solubilized in DMSO, or left untreated. After 24 h (M. hydrocarbonoclasticus, C. marina) or 48 h (P. batsensis, P. inhibens, M. luteus) incubation, optical density at 600 nm (OD600) was measured using a Molecular Devices Spectra Max 190. Growth inhibition percentages were calculated relatively to untreated bacterial species, using DMSO as a negative control. CuSO4 (0.16 μg/mL), a recognized antifouling agent, was used as positive control. All assays were conducted in triplicate, and the results represent the mean and standard error of the mean (SEM). Statistical analysis was carried out using GraphPad Prism 8.0.2 (San Diego, CA, United States), employing one-way ANOVA followed by Dunnett’s multiple comparisons test against the negative control.

Aliivibrio fischeri = experiment: Inhibition of bioluminescence (ISO 11348-3 micro adaptation); type: cell-based; conditions: Aliivibrio fischeri
Method: The in vivo evaluation of compounds (1) and (2) for acute toxicity was performed towards marine bacterium Aliivibrio fischeri, and planktonic crustacean Daphnia magna. The chronic ecotoxicity tests were evaluated using algae Pseudokirchneriella subcapitata and Phaeodactylum tricornutum.
The inhibition of bioluminescence of the marine bacterium A. fischeri, were studied following a micro adaptation of the standard procedure ISO 11348-3 (“Water Quality-Determination of the inhibitory effect of water samples on the light emission of Vibrio fischeri - Luminescent bacteria test–using freeze-dried bacteria method”). Briefly, frozen lyophilized bacterial cells (Abraxis, Warminster, PA, United States) were reconstituted in Reconstitution Solution, supplied by the manufacturer of the Abratox kit (Abraxis). Madeirone (1) and neomarinone (2) were dissolved in DMSO and tested at the concentrations of 100, 50, 25, 12.5, 6.25, 3.13, and 1.56 μg/mL. The emitted luminescence was measured using a luminometer at time 0 min and at different exposure times (5, 15 and 30 min) and the percentage of inhibition of bioluminescence was determined. Each experiment was performed in duplicate and the results of three independent experiments with <10% SD are presented. Phenol was used as a positive control.

Row | Structure (SMILES) | LC50 at 15 h [1] [µg/mL] | Biofilm inhibition (%) M. luteus (M. luteus; 0.98 µg/mL, 48 h) | Biofilm inhibition (%) M. luteus (M. luteus; 1.95 µg/mL, 48 h) | Biofilm inhibition (%) M. luteus (M. luteus; 3.91 µg/mL, 48 h) | Biofilm inhibition (%) M. luteus (M. luteus; 7.81 µg/mL, 48 h) | Biofilm inhibition (%) M. luteus (M. luteus; 15.60 µg/mL, 48 h) | inhibition at 31.25 µg/mL (M. luteus; Micrococcus luteus, 48 h) [%] | Growth inhibition (%) P. inhibens (P. inhibens; 0.98 µg/mL) | Growth inhibition (%) P. inhibens (P. inhibens; 1.95 µg/mL) | Growth inhibition (%) P. inhibens (P. inhibens; 3.91 µg/mL) | Growth inhibition (%) P. inhibens (P. inhibens; 7.81 µg/mL) | Growth inhibition (%) P. inhibens (P. inhibens; 15.60 µg/mL) | inhibition at 31.25 µg/mL (P. inhibens; Phaeobacter inhibens, 31.25 µg/mL) [%] | Inhibition (%) A. fischeri (bioluminescence) (Aliivibrio fischeri; 50 µg/mL) [%] | Inhibition (%) A. fischeri (bioluminescence) (Aliivibrio fischeri; 100 µg/mL) [%] | Biofilm inhibition, up to (highest over tested concentrations) M. luteus (M. luteus; 0.98-31.25 µg/mL tested) | inhibition at 3.91 µg/mL (M. luteus; Micrococcus luteus, 3.91 µg/mL, 48 h) [%] | inhibition at 7.81 µg/mL (M. luteus; Micrococcus luteus, 7.81 µg/mL, 48 h) [%] | inhibition at 15.6 µg/mL (M. luteus; Micrococcus luteus, 15.60 µg/mL, 48 h) [%] | Growth inhibition (%) P. inhibens (P. inhibens; 31.25 µg/mL)
1 | CC1=CCC[C@@H](C)[C@]1(C)CC[C@@]1(C)c2c(O)cc3c(c2O[C@@H]1C)C(=O)C=C(CO)C3=O (relative stereo) [compound 1, madeirone] | > 10 | N.I. | N.I. | N.I. | N.I. | N.I. | 35.3 ± 0.2 | N.I. | N.I. | N.I. | N.I. | N.I. | 24.3 ± 0.5 | 15.1 | 49.2 |  |  |  |  | 
2 | CC1=CCC[C@@H](C)[C@]1(C)CC[C@@]1(C)c2c(O)cc3c(c2O[C@@H]1C)C(=O)C(C)=C(O)C3=O [compound 2, neomarinone] | > 4 | N.I. | N.I. |  |  |  | 33.3 ± 7.3 | N.I. | N.I. | N.I. | N.I. | N.I. |  | 25.0 | 37.3 | up to 40% | 7.8 ± 16.9 | 29.9 ± 12.4 | 41 ± 8.2 | N.I.
